Results published in patent US7393812B2, “Methylidene mevalonates and their use as herbicides” (Dow AgroSciences LLC, priority 2004, dated 2008).

Assays:
Test in all cases: Post-emergent evaluation
Assay type in all cases: in vivo
Conditions in all cases: after 2 weeks
corn (Zea mays, ZEAMX) = tested on: corn (Zea mays, ZEAMX)
Protocol: (§1) Seeds of the desired test plant species were planted in Grace-Sierra MetroMix® 306 planting mixture, which typically has a pH of 6.0 to 6.8 and an organic matter content of about 30 percent, in plastic pots with a surface area of 64 square centimeters. When required to ensure good germination and healthy plants, a fungicide treatment and/or other chemical or physical treatment was applied. The plants were grown for 7-21 days in a greenhouse with an approximate 15 hr photoperiod which was maintained at about 23-29° C. during the day and 22-28° C. during the night. Nutrients and water were added on a regular basis and supplemental lighting was provided with overhead metal halide 1000-Watt lamps as necessary. The plants were employed for testing when they reached the first or second true leaf stage.
(§2) A weighed amount, determined by the highest rate to be tested, of each test compound was placed in a 20 mL glass vial and was dissolved in 4 mL of a 97:3 v/v (volume/volume) mixture of acetone and dimethyl sulfoxide (DMSO) to obtain concentrated stock solutions. […] The concentrated stock solutions obtained were diluted with an aqueous mixture containing acetone, water, isopropyl alcohol, DMSO, Atplus 411F crop oil concentrate, and Triton X-155 surfactant in a 48.5:39:10:1.5:1.0:0.02 v/v ratio to obtain spray solutions of known concentration. The solutions containing the highest concentration to be tested were prepared by diluting 2 mL aliquots of the stock solution with 13 mL of the mixture and lower concentrations were prepared by serial dilution of the stock solution. Approximately 1.5 mL aliquots of each solution of known concentration were sprayed evenly onto each of the test plant pots using a DeVilbiss atomizer driven by compressed air pressure of 2 to 4 psi ([…]) to obtain thorough coverage of each plant. Control plants were sprayed in the same manner with the aqueous mixture. In this test an application rate of 1 ppm results in the application of approximately 1 g/Ha.
(§3) The treated plants and control plants were placed in a greenhouse as described above and watered by sub-irrigation to prevent wash-off of the test compounds. After 2 weeks the condition of the test plants as compared with that of the untreated plants was determined visually and scored on a scale of 0 to 100 percent where 0 corresponds to no injury and 100 corresponds to complete kill. Species abbreviations as described for Table I with the following additions: soybean (Glycine max, GLXMA), rape (Brassica napus, BRSNN), chickweed (Stellaria media, STEME), cocklebur (Xanthium strumarium XANST), lambsquarters (Chenopodium album, CHEAL), violet (Viola tricolor, VIOTR), bindweed (Polygonum convolvulus, POLCO), spurge (Euphorbia heterophylla, EPHHL), Canada thistle (Cirsium arvense, CIRAR), corn (Zea mays, ZEAMX), rice (Oryza sativa, ORYSA), wheat (Triticum aestivum, TRZAS), crabgrass (Digitaria sanguinalis, DIGSA), shattercane (Sorghum vulgare, SORVU) and yellow nutsedge (Cyperus esculentus, CYPES).

[1] = tested on: Canada thistle (Cirsium arvense, CIRAR)
Protocol: as §1, §2, §3

[2] = tested on: pigweed (Amaranthus spp., AMARE)
Protocol: as §1, §2, §3

[3] = tested on: blackgrass (Alopecurus myosuroides, ALOMY)
Protocol: as §1, §2, §3

[4] = tested on: wheat (Triticum aestivum, TRZAS)
Protocol: as §1, §2, §3

[5] = tested on: wild oats (Avena fatua, AVEFA)
Protocol: as §1, §2, §3

[6] = tested on: rape (Brassica napus, BRSNN)
Protocol: as §1, §2, §3

[7] = tested on: rice (Oryza sativa, ORYSA)
Protocol: as §1, §2, §3

[8] = tested on: bindweed (Polygonum convolvulus, POLCO)
Protocol: as §1, §2, §3

[9] = tested on: cocklebur (Xanthium strumarium XANST)
Protocol: as §1, §2, §3

[10] = tested on: lambsquarters (Chenopodium album, CHEAL)
Protocol: as §1, §2, §3

[11] = tested on: spurge (Euphorbia heterophylla, EPHHL)
Protocol: as §1, §2, §3

[12] = tested on: soybean (Glycine max, GLXMA)
Protocol: as §1, §2, §3

Measured: Postemergent % Control

C=C(CO)C(C)(O)CC(=O)O (centres unmarked) [methylidene mevalonate, 3-hydroxy-4-(hydroxymethyl)-3-methylpent-4-enoic acid]
70%: [3]; spray concentration 1000 ppm | [4]; spray concentration 1000 ppm | [11]; spray concentration 2000 ppm
100%: [2]; spray concentration 500 ppm | [2]; spray concentration 1000 ppm | [2]; spray concentration 2000 ppm
60%: corn (Zea mays, ZEAMX); spray concentration 500 ppm | [3]; spray concentration 500 ppm | [6]; spray concentration 2000 ppm | [11]; spray concentration 1000 ppm
20%: corn (Zea mays, ZEAMX); spray concentration 250 ppm | [1]; spray concentration 500 ppm | [3]; spray concentration 250 ppm | [4]; spray concentration 250 ppm | [4]; spray concentration 500 ppm | [5]; spray concentration 500 ppm | [8]; spray concentration 125 ppm | [8]; spray concentration 250 ppm | [9]; spray concentration 1000 ppm | [9]; spray concentration 2000 ppm | [12]; spray concentration 125 ppm | [12]; spray concentration 250 ppm
10%: [1]; spray concentration 125 ppm | [1]; spray concentration 250 ppm | [2]; spray concentration 125 ppm | [6]; spray concentration 250 ppm | [9]; spray concentration 500 ppm | [10]; spray concentration 500 ppm
85%: [5]; spray concentration 1000 ppm | [8]; spray concentration 500 ppm
95%: [8]; spray concentration 2000 ppm
30%: [2]; spray concentration 250 ppm | [7]; spray concentration 250 ppm | [11]; spray concentration 125 ppm | [11]; spray concentration 250 ppm
50%: [1]; spray concentration 2000 ppm | [6]; spray concentration 500 ppm | [6]; spray concentration 1000 ppm | [10]; spray concentration 1000 ppm | [11]; spray concentration 500 ppm | [12]; spray concentration 500 ppm
90%: [5]; spray concentration 2000 ppm | [8]; spray concentration 1000 ppm
0%: corn (Zea mays, ZEAMX); spray concentration 125 ppm | [3]; spray concentration 125 ppm | [4]; spray concentration 125 ppm | [5]; spray concentration 125 ppm | [5]; spray concentration 250 ppm | [6]; spray concentration 125 ppm | [7]; spray concentration 125 ppm | [9]; spray concentration 125 ppm | [10]; spray concentration 125 ppm | [10]; spray concentration 250 ppm
98%: corn (Zea mays, ZEAMX); spray concentration 1000 ppm | corn (Zea mays, ZEAMX); spray concentration 2000 ppm
5%: [9]; spray concentration 250 ppm
40%: [1]; spray concentration 1000 ppm | [7]; spray concentration 500 ppm
80%: [3]; spray concentration 2000 ppm | [4]; spray concentration 2000 ppm | [7]; spray concentration 1000 ppm | [7]; spray concentration 2000 ppm | [10]; spray concentration 2000 ppm | [12]; spray concentration 1000 ppm | [12]; spray concentration 2000 ppm
